Test system: hrpA promoter (T3SS)
Test: hrpA promoter-probe phrpA in Erwinia amylovora 273, flow cytometry
Assay type: cell-based
Conditions: Ea273 (phrpA), HIM + 100 μM compound
Method: Wild-type Erwinia amylovora 273 was used in this study. The promoter-probe plasmid phrpA was constructed as follows. The hrpA promoter region of Erwinia amylovora 273 was amplified and cloned into pPROBE-NT to produce PhrpA. Plasmid PhrpA was electroporated into Erwinia amylovora 273. Expression of hrpA was analyzed using a FACS Calibur flow cytometer (BD Biosciences, CA). Wild-type Erwinia amylovora 273 containing phrpA was cultured in a hrp-inducing medium (HIM) containing dimethyl sulfoxide (DMSO; solvent of chemical compounds), or HIM supplemented with 100 μM of each compound, and promoter activity was assessed at 6 h and 9 h by measuring GFP intensity using flow cytometry (Table 19).

## O=C(O)CCc1ccc(O)cc1 [Compound 007, 3-(4-Hydroxyphenyl)propionic acid]
6 h
  Avg MFI ± SD, hrpA expression: 1093.1 ± 62.8
9 h
  Avg MFI ± SD, hrpA expression: 1211.0 ± 58.7

## O=C(/C=C/c1ccc(O)cc1)NCCO [Compound 138, N-(2-Hydroxyethyl)-4-hydroxycinnamamide]
6 h
  Avg MFI ± SD, hrpA expression: 1474.5 ± 30.4
9 h
  Avg MFI ± SD, hrpA expression: 1907.0 ± 39.8

## O=C(O)[C@@H]1C[C@H]1c1ccccc1 (relative stereo) [Compound 010, trans-2-Phenylcyclopropane-1-carboxylic acid]
6 h
  Avg MFI ± SD, hrpA expression: 336.7 ± 28.1
9 h
  Avg MFI ± SD, hrpA expression: 293.0 ± 4.7

## O=C(O)/C=C/c1ccccc1C(=O)O [Compound 024, trans-2-Carboxycinnamic acid]
6 h
  Avg MFI ± SD, hrpA expression: 361.1 ± 76.1
9 h
  Avg MFI ± SD, hrpA expression: 332.2 ± 19.6

## O=C(O)COc1ccccc1 [Compound 009, Phenoxyacetic acid]
6 h
  Avg MFI ± SD, hrpA expression: 342.7 ± 24.8
9 h
  Avg MFI ± SD, hrpA expression: 269.9 ± 15.2

## O=C(/C=C/c1ccccc1Cl)NO [Compound 150, trans-2-Chlorocinnamohydroxamic acid]
6 h
  Avg MFI ± SD, hrpA expression: 25.9 ± 3.2
9 h
  Avg MFI ± SD, hrpA expression: 30.5 ± 3.3

## O=C(/C=C/c1ccccc1Br)NO [Compound 152, trans-2-Bromocinnamohydroxamic acid]
6 h
  Avg MFI ± SD, hrpA expression: 15.7 ± 2.3
9 h
  Avg MFI ± SD, hrpA expression: 11.1 ± 1.2

## O=C(O)/C=C/c1cccc(Cl)c1 [Compound 022, trans-3-Chlorocinnamic acid]
6 h
  Avg MFI ± SD, hrpA expression: 332.9 ± 16.9
9 h
  Avg MFI ± SD, hrpA expression: 238.3 ± 8.7

## Cc1ccc(/C=C/C(=O)O)cc1 [Compound 020, trans-4-Methylcinnamic acid]
6 h
  Avg MFI ± SD, hrpA expression: 208.5 ± 2.7
9 h
  Avg MFI ± SD, hrpA expression: 145.4 ± 3.7

## COc1cccc(/C=C/C(=O)NO)c1 [Compound 158, trans-3-Methoxycinnamohydroxamic acid]
6 h
  Avg MFI ± SD, hrpA expression: 216.2 ± 12.5
9 h
  Avg MFI ± SD, hrpA expression: 250.6 ± 13.9

## O=C(O)/C=C/c1c[nH]cn1 [Compound 014, trans-3-(4-Imidazolyl)acrylic acid]
6 h
  Avg MFI ± SD, hrpA expression: 874.6 ± 23.1
9 h
  Avg MFI ± SD, hrpA expression: 839.2 ± 17.6

## COC(=O)/C=C/c1ccccc1 [Compound 030, Methyl trans-cinnamate]
6 h
  Avg MFI ± SD, hrpA expression: 674.8 ± 252.1
9 h
  Avg MFI ± SD, hrpA expression: 668.5 ± 31.2

## O=C(O)/C=C/c1ccc(O)cc1O [Compound 002, 2,4-Dihydroxycinnamic acid]
6 h
  Avg MFI ± SD, hrpA expression: 1365.3 ± 104.9
9 h
  Avg MFI ± SD, hrpA expression: 1479.8 ± 72.9

## O=C(O)/C=C/c1ccc(C(=O)Cc2ccccc2)cc1 [Compound 164, trans-4-(Benzylcarbonyl)cinnamic acid]
6 h
  Avg MFI ± SD, hrpA expression: 155.7 ± 22.2
9 h
  Avg MFI ± SD, hrpA expression: 116.4 ± 6.7

## CN(C(=O)c1ccc(/C=C/C(=O)O)cc1)c1ccccc1 [Compound 167, trans-4-(Carbo-N-methyl-phenylamide)cinnamic acid]
6 h
  Avg MFI ± SD, hrpA expression: 729.7 ± 67.5
9 h
  Avg MFI ± SD, hrpA expression: 707.3 ± 55.9

## O=C(O)/C=C/c1ccc(Cl)cc1 [Compound 023, trans-4-Chlorocinnamic acid]
6 h
  Avg MFI ± SD, hrpA expression: 171.8 ± 7.7
9 h
  Avg MFI ± SD, hrpA expression: 125.8 ± 3.9

## O=C(CCc1ccccc1)NO [Compound 139, 3-Phenylpropionohydroxamic acid]
6 h
  Avg MFI ± SD, hrpA expression: 306.3 ± 11.9
9 h
  Avg MFI ± SD, hrpA expression: 286.3 ± 10.0

## O=C(/C=C/c1ccco1)NO [Compound 163, trans-3-(2-Furyl)acrylhydroxamic acid]
6 h
  Avg MFI ± SD, hrpA expression: 231.5 ± 7.0
9 h
  Avg MFI ± SD, hrpA expression: 196.5 ± 14.9

## O=C(/C=C/c1ccccc1F)NO [Compound 154, trans-2-Fluorocinnamohydroxamic acid]
6 h
  Avg MFI ± SD, hrpA expression: 111.4 ± 15.1
9 h
  Avg MFI ± SD, hrpA expression: 77.8 ± 1.3

## COc1ccccc1/C=C/C(=O)NO [Compound 159, trans-2-Methoxycinnamohydroxamic acid]
6 h
  Avg MFI ± SD, hrpA expression: 256.3 ± 10.8
9 h
  Avg MFI ± SD, hrpA expression: 337.3 ± 15.2

## O=C(O)/C=C/c1ccc(C(=O)Nc2ccccc2)cc1 [Compound 166, trans-4-(Carbo-phenylamide)cinnamic acid]
6 h
  Avg MFI ± SD, hrpA expression: 105.0 ± 53.0
9 h
  Avg MFI ± SD, hrpA expression: 221.2 ± 22.2

## Cc1ccccc1/C=C/C(=O)O [Compound 018, trans-2-Methylcinnamic acid]
6 h
  Avg MFI ± SD, hrpA expression: 303.8 ± 8.7
9 h
  Avg MFI ± SD, hrpA expression: 262.5 ± 9.3

## O=C(/C=C/c1cccc(Br)c1)NO [Compound 151, trans-3-Bromocinnamohydroxamic acid]
6 h
  Avg MFI ± SD, hrpA expression: 6.3 ± 1.2
9 h
  Avg MFI ± SD, hrpA expression: 3.9 ± 1.2

## O=C(/C=C/c1cccc(O)c1)NO [Compound 130, trans-3-Hydroxycinnamohydroxamic acid]
6 h
  Avg MFI ± SD, hrpA expression: 431.4 ± 4.1
9 h
  Avg MFI ± SD, hrpA expression: 491.0 ± 10.2

## O=C(O)/C=C/c1cccs1 [Compound 011, trans-3-(2-Thienyl)acrylic acid]
6 h
  Avg MFI ± SD, hrpA expression: 230.1 ± 5.8
9 h
  Avg MFI ± SD, hrpA expression: 167.3 ± 8.2

## O=C(/C=C/c1ccc([N+](=O)[O-])cc1)NO [Compound 155, trans-4-Nitrocinnamohydroxamic acid]
6 h
  Avg MFI ± SD, hrpA expression: 108.4 ± 8.5
9 h
  Avg MFI ± SD, hrpA expression: 132.5 ± 2.6

## O=C(/C=C/c1cccs1)NO [Compound 161, trans-3-(2-Thienyl)acrylhydroxamic acid]
6 h
  Avg MFI ± SD, hrpA expression: 132.4 ± 13.2
9 h
  Avg MFI ± SD, hrpA expression: 145.0 ± 11.7

## O=C(O)C#Cc1ccccc1 [Compound 136, Phenylpropiolic acid]
6 h
  Avg MFI ± SD, hrpA expression: 261.7 ± 1.0
9 h
  Avg MFI ± SD, hrpA expression: 307.0 ± 9.3

## O=C(/C=C/c1ccc(-c2ccccc2)cc1)NO [Compound 140, trans-4-Phenylcinnamohydroxamic acid]
6 h
  Avg MFI ± SD, hrpA expression: 101.7 ± 17.1
9 h
  Avg MFI ± SD, hrpA expression: 82.8 ± 4.3

## O=C(O)/C=C/c1c[nH]c2ccccc12 [Compound 012, trans-3-Indoleacrylic acid]
6 h
  Avg MFI ± SD, hrpA expression: 33.7 ± 8.9
9 h
  Avg MFI ± SD, hrpA expression: 47.9 ± 6.9

## Cc1ccc(/C=C/C(=O)NO)cc1 [Compound 142, trans-4-Methylcinnamohydroxamic acid]
6 h
  Avg MFI ± SD, hrpA expression: 126.2 ± 5.6
9 h
  Avg MFI ± SD, hrpA expression: 106.0 ± 13.6

## O=C(/C=C/c1ccc(F)cc1)NO [Compound 141, trans-4-Fluorocinnamohydroxamic acid]
6 h
  Avg MFI ± SD, hrpA expression: 167.6 ± 4.7
9 h
  Avg MFI ± SD, hrpA expression: 119.0 ± 7.1

## O=C(/C=C/c1ccccc1[N+](=O)[O-])NO [Compound 157, trans-2-Nitrocinnamohydroxamic acid]
6 h
  Avg MFI ± SD, hrpA expression: 104.6 ± 7.3
9 h
  Avg MFI ± SD, hrpA expression: 96.2 ± 3.3

## Cc1cccc(/C=C/C(=O)O)c1 [Compound 019, trans-3-Methylcinnamic acid]
6 h
  Avg MFI ± SD, hrpA expression: 311.5 ± 18.6
9 h
  Avg MFI ± SD, hrpA expression: 251.6 ± 13.3

## O=C(O)c1cccc(O)c1 [Compound 145, 3-Hydroxybenzoic acid]
6 h
  Avg MFI ± SD, hrpA expression: 559.4 ± 23.6
9 h
  Avg MFI ± SD, hrpA expression: 529.9 ± 32.0

## Benzoic acid [Compound 034]
6 h
  Avg MFI ± SD, hrpA expression: 48.1 ± 5.4
9 h
  Avg MFI ± SD, hrpA expression: 32.6 ± 1.9

## O=C(O)/C=C/c1ccc2ccccc2c1 [Compound 035, 3-(2-naphthyl) acrylic acid]
6 h
  Avg MFI ± SD, hrpA expression: 178.9 ± 9.7
9 h
  Avg MFI ± SD, hrpA expression: 89.0 ± 6.2

## NC(=O)/C=C/c1ccccc1 [Compound 031, trans-Cinnamamide]
6 h
  Avg MFI ± SD, hrpA expression: 98.0 ± 18.4
9 h
  Avg MFI ± SD, hrpA expression: 88.1 ± 4.6

## O=C(/C=C/c1ccc(CO)cc1)NO [Compound 147, trans-4-Hydroxymethylcinnamohydroxamic acid]
6 h
  Avg MFI ± SD, hrpA expression: 688.6 ± 39.2
9 h
  Avg MFI ± SD, hrpA expression: 746.8 ± 96.3

## O=C(/C=C/c1ccccc1O)NO [Compound 129, trans-2-Hydroxycinnamohydroxamic acid]
6 h
  Avg MFI ± SD, hrpA expression: 187.9 ± 1.2
9 h
  Avg MFI ± SD, hrpA expression: 181.0 ± 0.7

## Cc1ccccc1/C=C/C(=O)NO [Compound 160, trans-2-Methylcinnamohydroxamic acid]
6 h
  Avg MFI ± SD, hrpA expression: 122.7 ± 1.9
9 h
  Avg MFI ± SD, hrpA expression: 95.7 ± 3.7

## O=C(O)/C=C/c1ccc(S)cc1 [Compound 026, trans-4-Mercaptocinnamic acid]
6 h
  Avg MFI ± SD, hrpA expression: 159.7 ± 22.0
9 h
  Avg MFI ± SD, hrpA expression: 44.7 ± 2.7

## COc1ccccc1/C=C/C(=O)O [Compound 015, trans-2-Methoxycinnamic acid]
6 h
  Avg MFI ± SD, hrpA expression: 342.6 ± 7.0
9 h
  Avg MFI ± SD, hrpA expression: 255.1 ± 1.7

## O=C(O)/C=C/c1ccc(C(=O)O)cc1 [Compound 025, trans-4-Carboxycinnamic acid]
6 h
  Avg MFI ± SD, hrpA expression: 421.0 ± 10.6
9 h
  Avg MFI ± SD, hrpA expression: 496.7 ± 98.9

## O=C(O)/C=C/c1ccc([N+](=O)[O-])cc1 [Compound 028, trans-4-Nitrocinnamic acid]
6 h
  Avg MFI ± SD, hrpA expression: 14.4 ± 16.9
9 h
  Avg MFI ± SD, hrpA expression: 4.0 ± 0.3

## O=C(/C=C/c1ccc(Br)cc1)NO [Compound 128, trans-4-Bromocinnamohydroxamic acid]
6 h
  Avg MFI ± SD, hrpA expression: 17.6 ± 2.8
9 h
  Avg MFI ± SD, hrpA expression: 5.7 ± 2.2

## O=C(/C=C/c1cccc([N+](=O)[O-])c1)NO [Compound 156, trans-3-Nitrocinnamohydroxamic acid]
6 h
  Avg MFI ± SD, hrpA expression: 67.8 ± 17.9
9 h
  Avg MFI ± SD, hrpA expression: 99.5 ± 4.9

## O=C(O)/C=C/c1cccc(O)c1 [Compound 005, meta-coumaric acid]
6 h
  Avg MFI ± SD, hrpA expression: 1212 ± 47.6
9 h
  Avg MFI ± SD, hrpA expression: 1439.1 ± 97.9

## O=C(COc1ccccc1)NO [Compound 143, 2-Phenoxyacetohydroxamic acid]
6 h
  Avg MFI ± SD, hrpA expression: 228.7 ± 4.6
9 h
  Avg MFI ± SD, hrpA expression: 178.5 ± 27.1

— patent US9260382B2, “Methods of reducing virulence in bacteria” (priority 2010, dated 2016)
